Experimental data from the NIST ThermoML archive (doi:10.1016/j.tca.2012.03.001).

Columns and labels:
[1] = Liquid; for viscosity: 101 kPa; for mass density: 101.33 kPa, Pycnometric method
[2] = xn = mol fraction of the nth substance listed; conditions: 101 kPa, Liquid

CCOCCO [2-ethoxyethan-1-ol]
[1]
Conditions | mass density [kg/m3] | viscosity [mPa·s]
303.15 K | 921.19 | 1.654
308.15 K | 916.43 | 1.482
313.15 K | 911.58 | 1.306
318.15 K | 907.76 | 1.231
323.15 K | 903.45 | 1.116

CCOCCO [2-ethoxyethan-1-ol] + NC=O
viscosity [mPa·s], [2]
Conditions | x2 = 0 | x2 = 0.0975 | x2 = 0.2009 | x2 = 0.2984 | x2 = 0.4047 | x2 = 0.5054 | x2 = 0.6055 | x2 = 0.7092 | x2 = 0.8063 | x2 = 0.9074
303.15 K | 1.654 | 1.996 | 2.306 | 2.58 | 2.873 | 3.162 | 3.409 | 3.509 | 3.495 | 3.306
308.15 K | 1.482 | 1.79 | 2.017 | 2.24 | 2.49 | 2.735 | 2.968 | 3.043 | 3.007 | 2.867
313.15 K | 1.306 | 1.564 | 1.786 | 1.986 | 2.221 | 2.466 | 2.659 | 2.718 | 2.692 | 2.583
318.15 K | 1.231 | 1.437 | 1.599 | 1.751 | 1.957 | 2.154 | 2.298 | 2.363 | 2.353 | 2.202
323.15 K | 1.116 | 1.281 | 1.415 | 1.533 | 1.709 | 1.891 | 2.041 | 2.1 | 2.094 | 1.954

COCCO [2-methoxyethan-1-ol]
[1]
Conditions | mass density [kg/m3] | viscosity [mPa·s]
303.15 K | 955.72 | 1.421
308.15 K | 951.11 | 1.249
313.15 K | 946.27 | 1.173
318.15 K | 941.64 | 1.079
323.15 K | 936.88 | 0.9347

COCCO [2-methoxyethan-1-ol] + NC=O
[2], x2 = 0
Conditions | viscosity [mPa·s]
303.15 K | 1.421
308.15 K | 1.249
313.15 K | 1.173
318.15 K | 1.079
323.15 K | 0.9347

NC=O [formamide]
[1]
Conditions | mass density [kg/m3] | viscosity [mPa·s]
303.15 K | 1124.57 | 2.877
308.15 K | 1120.19 | 2.544
313.15 K | 1115.22 | 2.356
318.15 K | 1110.95 | 2.061
323.15 K | 1105.47 | 1.835

NC=O [formamide] + CCOCCO
[2], x1 = 1
Conditions | viscosity [mPa·s]
303.15 K | 2.877
308.15 K | 2.544
313.15 K | 2.356
318.15 K | 2.061
323.15 K | 1.835

NC=O [formamide] + COCCO
viscosity [mPa·s], [2]
Conditions | x1 = 0.1785 | x1 = 0.2723 | x1 = 0.3849 | x1 = 0.4862 | x1 = 0.5726 | x1 = 0.6651 | x1 = 0.7492 | x1 = 0.8363 | x1 = 0.9138 | x1 = 1
303.15 K | 1.795 | 1.993 | 2.237 | 2.47 | 2.665 | 2.849 | 2.927 | 2.968 | 2.965 | 2.877
308.15 K | 1.573 | 1.749 | 1.966 | 2.158 | 2.322 | 2.504 | 2.593 | 2.614 | 2.609 | 2.544
313.15 K | 1.453 | 1.623 | 1.813 | 1.988 | 2.131 | 2.264 | 2.323 | 2.361 | 2.36 | 2.356
318.15 K | 1.313 | 1.46 | 1.626 | 1.769 | 1.885 | 1.988 | 2.046 | 2.07 | 2.057 | 2.061
323.15 K | 1.129 | 1.27 | 1.421 | 1.566 | 1.661 | 1.75 | 1.806 | 1.842 | 1.83 | 1.835
